# Results as given in US6261767A, “Method for the qualitative and quantitative detection of DNA damage” (Societe Francaise de Recherches et d'Investissements (SFRI), priority 1995, dated 2001).
# Starred links: 1 amine or outer side, 2 acyl side, 3 side chain; linkers in the order of their positions; H or OH if unused. Positions of bridges follow the written chain, without caps; N, C: chain ends. Non-standard residues stand in square brackets, D forms with d. Residues, ends and D or L forms follow the SMILES beside them. Chains are numbered I, II in the order given. Actinocin(9to1) = Cc1c2oc3c(C)ccc(C(=O)[*:1])c3nc-2c(C(=O)[*:2])c(N)c1=O; NMeV = CN[C@H](C(=O)O)C(C)C; Sar = CNCC(=O)O
# Experiments:
# [1] = test system: DNA damage generated by methylene blue; test: antioxidant relative activity (R.A.) against DNA damage by photo-activated methylene blue; assay type: biochemical; settings: summary of the R.A. table
# Experimental: b/ Methylene blue is known to liberate by photo-activation, one atom of oxygen. For the tests to follow, methylene blue was subjected to radiation with visible light for 20 minutes with two bulb lamps of 100 W, a distance between the lamps and the support plates of 30 cm and a concentration of methylene blue of 50 ng/ml. The step of repair of the damage is carried out according to the information indicated above, with the use of the same reaction medium RM. In the same fashion, the plates, after the action of the reaction medium RM are washed three times with the washing solution indicated above, and incubated 15 minutes with a chemiluminescent substrate ("Lumi-Phos 530"). […] For the second test, with methylene blue, the relative activity RA has been calculated of an antioxidant which is equal to: [formula] in which formula: control RLU corresponds to the value of the signal of methylene blue alone subjected to radiation, test RLU corresponds to the value of the signal of methylene blue subjected to […] radiation plus an antioxidant molecule, and reference RLU corresponds to the value of the signal of the antioxidant molecule alone.
# [2] = test system: repair activity of extracts from HeLa cells; test: modulation (inhibition) of the repair activity of cellular extracts from HeLa cells on damaged DNA; assay type: biochemical; settings: FIG. 9
# Source text: The invention also provides a process for measuring the effect of modulation and the inhibitive effect of the repair of at least one molecule, which comprises the following steps:
# preparation of damaged DNA fixed on a sensitized support,
# action of a composition comprising at least one cellular extract having a repair activity on this DNA, said extract containing markers, and conjointly the action of at least one molecule having the power of modulating the repair action,
# direct or indirect revelation of the markers that may be incorporated in the DNA, in the case of repair, and
# comparative reading relative to a control specimen.
# d/ Repair in the presence of a cellular extract and of agents of known type, comprising for example for a volume of reaction medium (RM) of 50 μl:
# In the course of the repair step, see FIG. 1D, the molecules for which it is sought to show a modulator effect of the repair can be added. These molecules are preferably diluted in water or in dimethylsulfoxide (DMSO).
# [3] = test system: DNA damage generated by hydrogen peroxide; test: inhibition of / antioxidant relative activity (R.A.) against DNA damage by hydrogen peroxide; assay type: biochemical; settings: 10 μm metallic chelating agent
compound,measurement,setting,value
Vitamin A,antioxidant activity (in words),[1],no antioxidizing effect
COc1cccc2c1C(=O)c1c(O)c3c(c(O)c1C2=O)C[C@@](O)(C(=O)CO)C[C@@H]3O[C@H]1C[C@H](N)[C@H](O)[C@H](C)O1 [doxorubicine],inhibitor effect on the repair activity,[2],dose- dependent inhibitor effect
CCn1cc(C(=O)O)c(=O)c2ccc(C)nc21 [nalidixic acid],inhibitor effect on the repair activity,[2],without effect
"Cc1c2oc3c(C)ccc(C(=O)N[C@@H]4C(=O)N[C@H](C(C)C)C(=O)N5CCC[C@H]5C(=O)N(C)CC(=O)N(C)[C@@H](C(C)C)C(=O)O[C@@H]4C)c3nc-2c(C(=O)N[C@@H]2C(=O)N[C@H](C(C)C)C(=O)N3CCC[C@H]3C(=O)N(C)CC(=O)N(C)[C@@H](C(C)C)C(=O)O[C@@H]2C)c(N)c1=O [actinomycin D] (I: T[dV]P[Sar][NMeV] / II: T[dV]P[Sar][NMeV]; ester I:1-I:C, II:1-II:C; linker I:N-II:N via Actinocin(9to1))",inhibitor effect on the repair activity,[2],dose- dependent inhibitor effect
CC(=O)N(O)CCCCCNC(=O)CCC(=O)N(O)CCCCCNC(=O)CCC(=O)N(O)CCCCCN [mesylate deferroxamine],inhibition of the effects of hydrogen peroxide (production of DNA damage),[3],inhibits totally
OO [hydrogen peroxide],quantity for which the maximum ratio of repair is obtained,DNA (plasmid 2959 bp),0.27 mM
"COS(C)(=O)=O [MMS, methylmethanesulfonate]",effectiveness of damage as shown by the repair ratio (before vs after adsorption of DNA),"DNA (plasmid 2959 bp); MMS in contact with DNA before the adsorption step, FIG. 7",greater effectiveness of damage
